Measurements published in PubChem BioAssay (NCI).
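Compound exposure: 48 hours, 5 concentrations, 96-well plates. GI50: concentration for 50% inhibition of growth. TGI marks complete inhibition of growth.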

Experiments:
Experiment in all cases: NCI-60 cell line screen, 48 h
K-562 leukemia = test system: K-562 leukemia
MDA-MB-231 breast = test system: MDA-MB-231 breast
NCI-H23 lung = test system: NCI-H23 lung
OVCAR-5 ovarian = test system: OVCAR-5 ovarian
SK-OV-3 ovarian = test system: SK-OV-3 ovarian
SNB-75 CNS = test system: SNB-75 CNS
SR leukemia = test system: SR leukemia
UACC-257 melanoma = test system: UACC-257 melanoma
UACC-62 melanoma = test system: UACC-62 melanoma
MCF7 breast = test system: MCF7 breast

## CO/N=C(\C)c1cccc(Nc2cc(-c3ccccc3)nc3c(O)cccc23)c1
K-562 leukemia
  GI50: 0.656 µM
  TGI: > 100 µM
MDA-MB-231 breast
  GI50: 2.74 µM
  TGI: 9.4 µM
NCI-H23 lung
  GI50: 3.92 µM
  TGI: 24 µM
OVCAR-5 ovarian
  GI50: 20.3 µM
  TGI: 60.7 µM
SK-OV-3 ovarian
  GI50: 8.62 µM
  TGI: 34.5 µM
SNB-75 CNS
  GI50: 20.5 µM
  TGI: 96.2 µM
SR leukemia
  GI50: 3.83 µM
  TGI: 29.8 µM
UACC-257 melanoma
  GI50: 4.07 µM
  TGI: 22.6 µM
UACC-62 melanoma
  GI50: 6.01 µM
  TGI: 29.2 µM

## C=CC(C=O)C1(O)CCOC(=O)/C1=C\N (stereo unspecified)
K-562 leukemia
  GI50: > 100 µM
  TGI: > 100 µM
MCF7 breast
  GI50: > 100 µM
  TGI: > 100 µM
MDA-MB-231 breast
  GI50: > 100 µM
  TGI: > 100 µM
NCI-H23 lung
  GI50: 52.4 µM
  TGI: > 100 µM
OVCAR-5 ovarian
  GI50: > 100 µM
  TGI: > 100 µM
SK-OV-3 ovarian
  GI50: > 100 µM
  TGI: > 100 µM
SR leukemia
  GI50: 30.7 µM
  TGI: > 100 µM
UACC-257 melanoma
  GI50: > 100 µM
  TGI: > 100 µM
UACC-62 melanoma
  GI50: > 100 µM
  TGI: > 100 µM

## O=C(CCCN1CCOCC1)Nc1ccc(Cn2nnc3c2C(=O)c2nnn(Cc4ccc(NC(=O)CCCN5CCOCC5)cc4)c2C3=O)cc1
K-562 leukemia
  GI50: 4.28 µM
  TGI: > 100 µM
MCF7 breast
  GI50: 1.03 µM
  TGI: 2.77 µM
NCI-H23 lung
  GI50: 2.33 µM
  TGI: 5.63 µM
OVCAR-5 ovarian
  GI50: > 100 µM
  TGI: > 100 µM
SK-OV-3 ovarian
  GI50: > 100 µM
  TGI: > 100 µM
SNB-75 CNS
  GI50: 1.83 µM
  TGI: 3.24 µM
SR leukemia
  GI50: 2.05 µM
  TGI: 7.86 µM
UACC-257 melanoma
  GI50: 1.7 µM
  TGI: 3.23 µM
UACC-62 melanoma
  GI50: 2.06 µM
  TGI: 5.86 µM

## COc1ccc2c(c1)C(=O)c1c-2c(Nc2ccc(C(C)=O)cc2)nc2ccccc12
K-562 leukemia
  GI50: > 100 µM
  TGI: > 100 µM
MCF7 breast
  GI50: 64.7 µM
  TGI: > 100 µM
MDA-MB-231 breast
  GI50: 11.4 µM
  TGI: 29.5 µM
NCI-H23 lung
  GI50: 18 µM
  TGI: 99.2 µM
OVCAR-5 ovarian
  GI50: 29.6 µM
  TGI: > 100 µM
SNB-75 CNS
  GI50: 26.1 µM
  TGI: > 100 µM
SR leukemia
  GI50: 55.7 µM
  TGI: > 100 µM
UACC-257 melanoma
  GI50: 91.1 µM
  TGI: > 100 µM
UACC-62 melanoma
  GI50: 21.9 µM
  TGI: > 100 µM

## Cc1cc(=O)[nH]o1
K-562 leukemia
  TGI: > 100 µM
MCF7 breast
  TGI: > 100 µM
MDA-MB-231 breast
  TGI: > 100 µM
NCI-H23 lung
  TGI: > 100 µM
OVCAR-5 ovarian
  TGI: > 100 µM
SK-OV-3 ovarian
  TGI: > 100 µM
SNB-75 CNS
  TGI: > 100 µM
UACC-257 melanoma
  TGI: > 100 µM
UACC-62 melanoma
  TGI: > 100 µM

## O=C1OCCC1C(O)C1c2ccccc2-c2ccccc21 (stereo unspecified)
K-562 leukemia
  TGI: > 100 µM
NCI-H23 lung
  TGI: > 100 µM
OVCAR-5 ovarian
  TGI: > 100 µM
SK-OV-3 ovarian
  TGI: > 100 µM
SNB-75 CNS
  TGI: > 100 µM
SR leukemia
  TGI: > 100 µM
UACC-257 melanoma
  TGI: > 100 µM
UACC-62 melanoma
  TGI: > 100 µM

## OCC1OC(OCC(O)C(O)C(O)C(/C=N/Nc2ccccc2)=N/Nc2ccccc2)C(O)C(O)C1O (stereo unspecified)
MCF7 breast
  TGI: > 100 µM
MDA-MB-231 breast
  TGI: > 100 µM
NCI-H23 lung
  TGI: > 100 µM
OVCAR-5 ovarian
  TGI: > 100 µM
SK-OV-3 ovarian
  TGI: > 100 µM
SNB-75 CNS
  TGI: > 100 µM
SR leukemia
  TGI: > 100 µM
UACC-257 melanoma
  TGI: > 100 µM

## O=C(CSC(c1ccccc1)c1ccccc1)N/N=C/c1cccc(Cl)c1
K-562 leukemia
  GI50: 21.6 µM
  TGI: 41.9 µM
MCF7 breast
  GI50: 19.1 µM
  TGI: 38.4 µM
MDA-MB-231 breast
  GI50: 14.4 µM
  TGI: 28.6 µM
NCI-H23 lung
  GI50: 14.9 µM
  TGI: 29 µM
OVCAR-5 ovarian
  GI50: 17.5 µM
  TGI: 33.8 µM
SR leukemia
  GI50: 17.7 µM
  TGI: 38.3 µM
UACC-257 melanoma
  GI50: 14.6 µM
  TGI: 32.1 µM
UACC-62 melanoma
  GI50: 16 µM
  TGI: 30.3 µM

## CC1(C)CCc2cc3c(cc2O1)OCC1c2cc4c(cc2OC31)OCO4 (stereo unspecified)
K-562 leukemia
  TGI: > 100 µM
NCI-H23 lung
  TGI: > 100 µM
OVCAR-5 ovarian
  TGI: > 100 µM
SK-OV-3 ovarian
  TGI: > 100 µM
SNB-75 CNS
  TGI: > 100 µM
SR leukemia
  TGI: > 100 µM
UACC-257 melanoma
  TGI: > 100 µM
UACC-62 melanoma
  TGI: > 100 µM

## CCOc1cc2c(cc1O)/C(=N\O)C[C@@H]1[C@@H]2CC[C@]2(C)[C@@H](O)CC[C@@H]12
K-562 leukemia
  GI50: 0.00978 µM
  TGI: > 94.1 µM
MCF7 breast
  GI50: 0.0264 µM
NCI-H23 lung
  GI50: 0.004 µM
OVCAR-5 ovarian
  TGI: > 100 µM
SNB-75 CNS
  GI50: 0.00232 µM
  TGI: 0.0166 µM
UACC-62 melanoma
  GI50: 0.00607 µM
  TGI: 28.8 µM

## COc1ccc2c(c1)[n+]([O-])c(-c1ccccc1)c(N)[n+]2[O-]
K-562 leukemia
  TGI: > 100 µM
NCI-H23 lung
  TGI: 61.7 µM
OVCAR-5 ovarian
  TGI: > 100 µM
SK-OV-3 ovarian
  TGI: > 100 µM
SNB-75 CNS
  TGI: > 100 µM
UACC-257 melanoma
  TGI: 71.6 µM
UACC-62 melanoma
  TGI: > 100 µM

## Oc1ccc(O)c(-c2cc(-c3ccccc3)nn2-c2ccccc2)c1
K-562 leukemia
  GI50: 21.7 µM
  TGI: > 100 µM
MCF7 breast
  GI50: 6.55 µM
  TGI: > 100 µM
MDA-MB-231 breast
  GI50: 30.3 µM
  TGI: > 100 µM
NCI-H23 lung
  GI50: 14.3 µM
  TGI: 32.5 µM
OVCAR-5 ovarian
  GI50: 10.6 µM
  TGI: 27 µM
UACC-257 melanoma
  GI50: 18 µM
  TGI: 52.1 µM
UACC-62 melanoma
  GI50: 11.9 µM
  TGI: 44.9 µM

## CC(=O)c1cccc(NC(=O)C(=O)C(C2OC(=O)c3ccccc32)[N+](=O)[O-])c1 (stereo unspecified)
K-562 leukemia
  TGI: > 100 µM
NCI-H23 lung
  TGI: > 100 µM
OVCAR-5 ovarian
  TGI: > 100 µM
SK-OV-3 ovarian
  TGI: > 100 µM
SNB-75 CNS
  TGI: > 100 µM
SR leukemia
  TGI: > 100 µM
UACC-257 melanoma
  TGI: > 100 µM
UACC-62 melanoma
  TGI: > 100 µM

## O=c1cc(N2CCNCC2)oc2c(-c3ccccc3)cccc12
K-562 leukemia
  GI50: 13.1 µM
  TGI: 47 µM
MCF7 breast
  GI50: 40.7 µM
  TGI: > 100 µM
MDA-MB-231 breast
  GI50: 24.1 µM
  TGI: > 100 µM
NCI-H23 lung
  GI50: > 100 µM
  TGI: > 100 µM
OVCAR-5 ovarian
  GI50: > 100 µM
  TGI: > 100 µM
SK-OV-3 ovarian
  GI50: 13.8 µM
  TGI: 42.2 µM
SNB-75 CNS
  GI50: 15.3 µM
  TGI: 75 µM
UACC-257 melanoma
  GI50: 13.6 µM
  TGI: 29.1 µM
UACC-62 melanoma
  GI50: 25.2 µM
  TGI: > 100 µM

## COc1ccc(N=Nc2c(-c3ccccc3)nn(C(=O)CC(=O)Nc3cccc(Cl)c3)c2-c2ccccc2)cc1
K-562 leukemia
  TGI: > 100 µM
NCI-H23 lung
  TGI: > 100 µM
OVCAR-5 ovarian
  TGI: > 100 µM
SK-OV-3 ovarian
  TGI: > 100 µM
SNB-75 CNS
  TGI: > 100 µM
UACC-257 melanoma
  TGI: > 100 µM
UACC-62 melanoma
  TGI: > 100 µM

## Cc1noc(C)c1-c1cc(O)cc(C(O)c2ccccc2)c1 (stereo unspecified)
K-562 leukemia
  GI50: 8.69 µM
  TGI: > 100 µM
MCF7 breast
  GI50: 1.7 µM
  TGI: > 100 µM
MDA-MB-231 breast
  GI50: 3.92 µM
  TGI: > 100 µM
OVCAR-5 ovarian
  GI50: 31.8 µM
  TGI: > 100 µM
SK-OV-3 ovarian
  GI50: 7.01 µM
  TGI: > 100 µM
SNB-75 CNS
  GI50: 0.423 µM
  TGI: > 100 µM
SR leukemia
  GI50: 1.01 µM
  TGI: > 100 µM
UACC-257 melanoma
  GI50: 4.66 µM
  TGI: > 100 µM

## CC(C)(C)CC(C)(C)c1cc2c(O)c(c1)Cc1cc(C(C)(C)CC(C)(C)C)cc(c1O)Cc1cc(C(C)(C)CC(C)(C)C)cc(c1O)Cc1cc(C(C)(C)CC(C)(C)C)cc(c1O)Cc1cc(C(C)(C)CC(C)(C)C)cc(c1O)Cc1cc(C(C)(C)CC(C)(C)C)cc(c1O)C2
K-562 leukemia
  TGI: > 100 µM
NCI-H23 lung
  TGI: > 100 µM
OVCAR-5 ovarian
  TGI: > 100 µM
SNB-75 CNS
  TGI: > 100 µM
UACC-257 melanoma
  TGI: > 100 µM
UACC-62 melanoma
  TGI: > 100 µM
